Measurements published in patent publication US20150065494A1, “AMINOSTYRYLBENZOFURAN DERIVATIVES AS INHIBITORS AGAINST BETA-AMYLOID FIBRIL FORMATION, AND PHARMACEUTICAL COMPOSITION COMPRISING SAME” (KOREA INSTITUTE OF SCIENCE AND TECHNOLOGY, priority 2012, published 2015).
Structures can show the parent of a compound that is named as a salt.

Key:
[1] = molecular target: T1, beta-amyloid 42 (Aβ42) (Homo sapiens, UniProt P05067); test: Inhibitory effect on the formation of beta-amyloid fibrils in vitro (ThT fluorescence assay); format: biochemical; conditions: for inhibition at 10 µM / % Inhibition (10 μM): 10 μM compound, 25 μM Aβ42, ThT fluorescence; for Aβ42 % inhibition compared with comparative compound curcumin: 10 μM
T1 construct: Beta-amyloid 42 (Aβ42) was dissolved in dimethylsulfoxide (DMSO) to form a 250 mM Aβ42 stock solution
T1 sequence (P05067 672-713 limits assumed): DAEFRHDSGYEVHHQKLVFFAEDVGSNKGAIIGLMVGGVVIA
Procedure: Beta-amyloid 42 (Aβ42) was dissolved in dimethylsulfoxide (DMSO) to form a […] Aβ42 stock solution. In addition, ThT (thioflavin T) was dissolved in distilled water to obtain a concentration of 1 mM and subsequently diluted with 50 mM glycin buffer (pH 8.5) to yield a 5 μM ThT stock solution. 45 μL of PBS (phosphate buffer saline, pH 7.4) was added to each of a 96-well fluorescence microplate (white, F-bottom). 5 μL of the 250 μM Aβ42 stock solution was added to each well. The final concentration of each compound obtained in Examples was in a range of 10 to 0.001 μM by adding 2 μL of a solution, which was prepared by dissolving the subject compounds obtained in Examples in DMSO, to each well. At this time, the final concentration of Aβ42 in each well was 25 μM. The plate was then incubated for 1 hr at room temperature, and 150 μL of the 5 μM ThT stock solution was added to each well.
The fluorescence intensity of each well was determined with the multi-label fluorescence counter (LS-55 Luminescence spectrometer: Perkin Elmer) at an excitation wavelength of 450 nm (excitation slit width: 10 nm) and an emission wavelength of 482 nm (emission slit width: 10 nm), while adjusting counting time to 1 second. The control group was prepared by adding PBS solution, Aβ42 and DMSO, without adding the inventive compound prepared above. A percent inhibition on the formation of beta-amyloid fibrils was calculated in accordance with the following equation, and IC50 was calculated by using GraphPad Prism version 4.03 Program.
% Inhibition=[1−(C−D)/(A−B)]×100
A (control group)=fluorescence intensity in a group treated with PBS solution, Aβ42 and DMSO
B (blank)=fluorescence intensity in a group treated with PBS solution and DMSO
C (experimental group)=fluorescence intensity in a group treated with PBS solution, Aβ42, the inventive compound and DMSO
D (compensation value to the experimental group) =fluorescence intensity in a group treated with PBS solution, the inventive compound and DMSO

[2] = Passage test through the blood-brain barrier (brain tissue concentration); format: in vivo, ICR mice and SD rats; conditions: brain; read-out: passage ability compared with plasma (blood-brain barrier)
Procedure: Three 7 week-old ICR mice (weight: approximately 30 g) and three 8 week-old SD rats (weight: approximately 250 g) were used per test group. A solution prepared by dissolving a hydrochloride salt of the compound of Example 3 in excipient (DMSO/Tween 20/saline: 0.1/0.6/2.3, v/v/v) was administered to each experimental animal. The test compound was intravenously administered in an amount of 5 mL per kg of body weight through the fine vein or orally administered in an amount of 10 mL per kg of body weight.
At 0.5, 1, 2, 4, 10 and 24 hrs after the administration of the test compound, the mice and rats were subjected to insufflations narcosis using isoflorane, followed by cutting the abdomen open. Subsequently, 1 mL of blood was collected from abdominal veins into the tube containing heparin (1000 IU/mL, 3 μL). The obtained blood samples were centrifuged for 2 min at 12,000 rpm to obtain plasma. The obtained plasmas were kept in a freezer at −80° C. until the analysis.
The mice and rats from which the blood samples were obtained were subjected to bloodletting, and then, the brain tissues of the mice and rats was collected. The brain tissue thus obtained was washed with physiological saline 1 or 2 times to remove blood. The weight of the brain tissue was measured after the removal of adipose tissue and peripheral tissue. 4% bovine serum albumin (BSA) solution diluted with 10-fold was added to the brain tissue. The resulting solution was subjected to homogenization using a homogenizer. The diluted homogenate thus obtained was placed in 2 mL tube and was kept in a freezer at −80° C. until the analysis. All of the treatments to the sample were performed in ice.
(§1) 50 μL of plasma was placed in a 2.0 mL tube with a cap (Eppendorf Co.). An internal standard solution and 1 mL of ethyl acetate as an extract solvent were added to the resulting solution. The resulting solution was mixed by using thermomixer (Eppendorf Co.) for 5 min at 1400 rpm, and then subjected to centrifugation (Eppendorf Co.). The supernatant was collected and concentrated at 35° C. by using a cyclone. The residue was re-dissolved in 50 μL of mobile phase and 5 μL of the resulting solution was injected into LC/MS and analyzed.
In Table 3, “iv” refers to intravenous injection; “po” refers to per oral; “AUC plasma” refers to an area under the plasma level-time curve; “Cmax” refers to a maximum plasma concentration; “Tmax” refers to a time to reach Cmax; “BA” refers to bioavailability (%) according to Equation 2 below; “AUC Brain” refers to an area under the brain tissue level-time curve; and “AUCBrain/AUCPlasma” refers to a passage rate of the test compound to the brain.

[3] = Pharmacokinetics test in mice (dose-dependent); format: in vivo, ICR mice; conditions: for AUC ratio / Cmax ratio / AUC / Cmax / Tmax / half-life: po; for AUC / Cmax / Tmax / half-life: ICR, mouse, plasma
Procedure: Two 6 week-old ICR mice (weight: approximately 25 g) were used per test group. A solution prepared by dissolving the compound of Example 3 in distilled water was administered to each experimental animal. The test compound was orally administered in an amount of 10 mL per kg of body weight.
At 0.5, 1, 2, 4, 10 and 24 hrs after the oral administration of the test compound, the blood was collected from jugular veins into a tube containing heparin (1,000 IU/mL, 3 μL). The obtained plasmas were centrifuged (12,000 rpm, 2 min, Eppendorf), and contained in a freezer at −80° C. until analysis.
as §1, with “cap (Eppendorf Co.) and acidified by adding 20 μL of 0.1% formic acid thereto. An internal” for “cap (Eppendorf Co.). An internal”
In Table 4, “po” refers to per oral; “AUC plasma” refers to an area under the plasma level-time curve; “Cmax” refers to a maximum plasma concentration; and “Tmax” refers to a time to reach Cmax.

CN(C)c1ccc(/C=C/c2cc3ccc(OCC4CCCCN4C)cc3o2)cc1 (stereo not shown) [Example 31, (E)-6-(1-methyl-2-piperidinylmethoxy)-2-(4-dimethylaminostyryl)benzofuran hydrochloride]
inhibition at 10 µM [1]: < 50%

CN(C)c1ccc(/C=C/c2cc3ccc(OCCN4CCOCC4)cc3o2)cc1.Cl [Example 27, (E)-6-(2-(4-morpholinoethoxy))-2-(4-dimethylaminostyryl)benzofuran hydrochloride]
% Inhibition (10 μM) [1]: ** (** (50% ≦ × < 70%))

CN(C)c1ccc(/C=C/c2cc3ccc(OCCN4CCCCC4)cc3o2)cc1.Cl [Example 29]
% Inhibition (10 μM) [1]: * (* (<50%))

CN(C)c1ccc(/C=C/c2cc3ccc(OCCCN4CCSCC4)cc3o2)cc1.Cl [Example 34, (E)-6-(3-(4-thiomorpholinopropoxy))-2-(4-dimethylaminostyryl)benzofuran hydrochloride]
% Inhibition (10 μM) [1]: * (* (<50%))

CN(C)c1ccc(/C=C/c2cc3ccc(OCCCc4ccncc4)cc3o2)cc1 [Example 17, (E)-6-(3-(4-pyridinyl)propoxy)-2-(4-dimethylaminostyryl)benzofuran]
inhibition at 10 µM [1]: < 50%

CN1CCCC(COc2ccc3cc(/C=C/c4ccc(N(C)C)cc4)oc3c2)C1 (stereo not shown) [Example 32, (E)-6-(1-methyl-3-piperidinylmethoxy)-2-(4-dimethylaminostyryl)benzofuran hydrochloride]
inhibition at 10 µM [1]: < 50%

CN(C)c1ccc(/C=C/c2cc3ccc(OCCCN4CCS(=O)(=O)CC4)cc3o2)cc1.Cl [Example 35, (E)-6-(3-(thiomorpholine-1,1-dioxide)propoxy)-2-(4-dimethylaminostyryl)benzofuran hydrochloride]
% Inhibition (10 μM) [1]: * (* (<50%))

C[C@@H]1CN(CCCOc2ccc3cc(/C=C/c4ccc(N(C)C)cc4)oc3c2)C[C@H](C)O1 [Example 28, (E)-6-(3-((2S,6R)-2,6-dimethylmorpholino)propoxy)-2-(4-dimethylaminostyryl)benzofuran hydrochloride]
inhibition at 10 µM [1]: < 50%

CCN(CC)CCCOc1ccc2cc(/C=C/c3ccc(N(C)C)cc3)oc2c1 [Example 24, (E)-6-(3-diethylaminopropoxy)-2-(4-dimethylaminostyryl)benzofuran hydrochloride]
inhibition at 10 µM [1]: 50 to 70%

CN(C)c1ccc(/C=C/c2cc3ccc(OCCCN4CCOCC4)cc3o2)cc1.Cl [Example 25, (E)-6-(3-(4-morpholinopropoxy))-2-(4-dimethylaminostyryl)benzofuran hydrochloride]
Aβ42 % inhibition compared with comparative compound curcumin [1]: equal to or greater than that of the comparative compound, curcumin
% Inhibition (10 μM) [1]: *** (*** (70%≦))

CN(C)c1ccc(/C=C/c2cc3ccc(OCCCN4CCCCC4)cc3o2)cc1 [Example 11, (E)-6-(3-(1-piperidinyl)propoxy)-2-(4-dimethylaminostyryl)benzofuran]
inhibition at 10 µM [1]: < 50%

CN(C)c1ccc(/C=C/c2cc3ccc(OCCCc4ccccn4)cc3o2)cc1 [Example 37, (E)-6-(3-(2-pyridinyl)propoxy)-2-(4-dimethylaminostyryl)benzofuran hydrochloride]
inhibition at 10 µM [1]: < 50%

CN(C)c1ccc(/C=C/c2cc3ccc(OCCCc4cccnc4)cc3o2)cc1 [Example 38, (E)-6-(3-(3-pyridinyl)propoxy)-2-(4-dimethylaminostyryl)benzofuran hydrochloride]
inhibition at 10 µM [1]: < 50%

COc1cc(/C=C/C(=O)CC(=O)/C=C/c2ccc(O)c(OC)c2)ccc1O [Curcumin, curcumin, reference compound]
inhibition at 10 µM [1]: ≥ 70%

CN(C)CCCOc1ccc2cc(/C=C/c3ccc(N(C)C)cc3)oc2c1 [Example 3, (E)-6-(3-dimethylaminopropoxy)-2-(4-dimethylaminostyryl)benzofuran]
Kp [2]: ≥ 1
AUC ratio ([3]; 10 mg/kg, relative to AUC at 10 mg/kg): 1.0
AUC ratio ([3]; 10 mg/kg, relative to AUC at 10 mg/kg, listed as Compound of Example 3, 10 mg/kg): 1
Cmax ratio ([3]; 10 mg/kg, relative to Cmax at 10 mg/kg): 1
AUC ratio ([3]; 30 mg/kg, AUC (30 mg/kg)/AUC (10 mg/kg)): 4.2
Cmax ratio ([3]; 30 mg/kg, Cmax (30 mg/kg)/Cmax (10 mg/kg)): 4.7
AUC ratio ([3]; 100 mg/kg, AUC (100 mg/kg)/AUC (10 mg/kg)): 10.4
Cmax ratio ([3]; 100 mg/kg, Cmax (100 mg/kg)/Cmax (10 mg/kg)): 9.4
AUC ([3]; 10 mg/kg): 443 ng·h/mL
Cmax ([3]; 10 mg/kg): 40.4 ng/mL
Tmax ([3]; 10 mg/kg): 0.5 h
half-life ([3]; 10 mg/kg): 4.9 h
AUC ([3]; 30 mg/kg): 1890 ng·h/mL
Cmax ([3]; 30 mg/kg): 188 ng/mL
Tmax ([3]; 30 mg/kg): 2 h
half-life ([3]; 30 mg/kg): 5.4 h
AUC ([3]; 100 mg/kg): 4580 ng·h/mL
Cmax ([3]; 100 mg/kg): 378 ng/mL
Tmax ([3]; 100 mg/kg): 4 h
half-life ([3]; 100 mg/kg): 23.5 h
dose-dependence of pharmacokinetics (linearity) ([3]; oral 10, 30 and 100 mg/kg): linear pharmacokinetics

CN1CCN(CCCOc2ccc3cc(/C=C/c4ccc(N(C)C)cc4)oc3c2)CC1 [Example 33, (E)-6-(3-(4-methyl-1-piperazinyl)propoxy)-2-(4-dimethylaminostyryl)benzofuran hydrochloride]
inhibition at 10 µM [1]: < 50%

CN(C)c1ccc(/C=C/c2cc3ccc(OCCN4CCOC4)cc3o2)cc1 [Example 21, (E)-6-(2-(3-oxazolidinyl)ethoxy)-2-(4-dimethylaminostyryl)benzofuran hydrochloride]
inhibition at 10 µM [1]: 50 to 70%

COc1ccc2cc(/C=C/c3ccc(N(C)CCF)cc3)oc2c1 [Example 20, (E)-6-(methoxy)-2-(4,4′-methyl(2-fluoroethyl)aminostyryl)benzofuran]
Aβ42 % inhibition compared with comparative compound curcumin [1]: equal to or greater than that of the comparative compound, curcumin
inhibition at 10 µM [1]: ≥ 70%
